Test results: patent publication EP1769677B1, “METHOD OF IDENTIFYING THERAPEUTIC COMPOUNDS WHICH CAN BE USED FOR THE TREATMENT AND/OR PREVENTION OF INFECTIONS AND DISEASES CAUSED BY HUMAN HERPESVIRUSES” (Universidad Aut Noma de Madrid, priority 2004, dated 2005)

Columns and labels:
[1] = tested on: herpes simplex virus type 1 (HSV-1) of the KOS strain; experiment: Neonate mortality after acyclovir treatment of HSV-1 infected mothers (vertical mother-progeny transmission model); format: in vivo, mice; conditions: neonates of HSV-1 infected mothers, 0.25 mg per dose three times a day, from five days before crossbreeding until birth
Method: (§1) All the animals included in the experimental process were 14-week old female mice of the C57Bl/6 lineage. Between two and three adult mice were used per analysis group and between 13 and 25 neonates, depending on the availability of animals. The experiments were performed strictly following the Guidance on the Operation of Animals (Scientific Procedures, Act 1986), supervised by personnel of the Animal house of the Centro de Biologia Molecular Severo Ochoa. All the animals went through a quarantine period and were treated with strict precautions against contamination during inoculation and dissection. The animals were intraperitoneally infected with a dose 10^6 pfu of herpes simplex virus type 1 (HSV-1) of the KOS strain (provided by el Dr. L. Carrasco, Centro de Biologia Molecular Severo Ochoa, Universidad Autónoma of Madrid). […] The first group of mice was not given any treatment. […] Therefore the antiviral concentration administered per dose and mouse was 0.25 mg (10 mg/kg per mouse, far from the toxicity limit of 80 mg/kg cited above), with a total daily dose of 0.75 mg/day.
After birth and sacrifice, the progeny survival rates and the mother and neonate viral loads were analyzed. The adult animals remained asymptomatic during the entire experimental process, suffering no mortality.

[2] = tested on: herpes simplex virus type 1 (HSV-1) of the KOS strain; experiment: Viral load in organs of mothers and progeny by quantitative PCR after acyclovir treatment of infected mothers; format: in vivo, mice
Method: as §1, with “The experiments were performed strictly following the Guidance on the Operation of Animals (Scientific Procedures, Act 1986), supervised by personnel of the Animal house of the Centro de Biologia Molecular Severo Ochoa.” left out
The dissected organs in the adult animals were the following: blood, ovaries, adrenal gland, spinal cord, brain, cerebellum and trigeminal ganglia. The entire brain was separated into three rough regions: midbrain, ventricles and cerebral cortex. In the neonates, the dissected organs were blood, spinal cord and encephalon. DNA was extracted using conventional methods (NucleoSpin®, Cat. K3053-2, ClonTech, USA). The viral load of the different organs was analyzed by means of quantitative PCR. […] Primers specific for the sequence of the viral polymerase (pol) gene were used to detect the virus (SEQ. ID. NO: 3 and SEQ. ID. NO: 4) (120 bp amplicon). The PCR conditions were one cycle of 95°C for 10 minutes, followed by 45 cycles at 95°C for 30 seconds, 55°C (for β-actin) or 60°C (for viral polymerase) for 30 seconds, and a last cycle of 72°C for 40 seconds. The virus concentration range used for optimizing the quantitative PCR standard curve was expressed as plaque forming units (pfu). For calibrating the β-actin gene, nanograms were used as the unit of this endogenous gene. The identity of the amplified products was checked by analysis of the denaturation curves, by gel electrophoresis and restriction analysis.

human herpesviruses = experiment: Survival with acyclovir given ad libitum in the drink (vertical transmission model); format: in vivo, mice; conditions: acyclovir ad libitum in drinking water, high dose (as printed, final daily dose 1.50 mg), from the day of the vaginal plug
Method: Assuming that a mouse drinks about 3 ml a day, 2 working dilutions ([…] so that the final daily dose was 0.75 mg, and […] so that the final daily dose was 1.50 mg) were used.

[3] = in vivo; cited from earlier work
[4] = oral acyclovir, daily dose 0.75 mg

What does the source list for `Nc1nc2c(ncn2COCCO)c(=O)[nH]1` [acyclovir]?
mortality ([1]; oral acyclovir to mothers, none of the 17 animals): no mortality was observed; mortality rate ([1]; subcutaneous acyclovir to mothers, 1 out of 25): 4.0%; viral loads both in the mothers and in the progeny ([2]; acyclovir daily dose of 0.75 mg, both administration routes (oral and subcutaneous), Figure 7): significant reduction; viral levels in all the analyzed organs of the descendants ([2]; oral acyclovir to the mothers, daily dose 0.75 mg, blood, spinal cord, encephalon): almost complete elimination; virus levels in blood of the mothers [2, 4]: virtually undetectable; virus levels in the trigeminal ganglia of the mothers [2, 4]: virtually undetectable; levels of the virus in the progeny's CNS ([2]; subcutaneous acyclovir to mothers, daily dose 0.75 mg, Figure 7B): considerably lower levels of the virus; levels of the virus in all the analyzed organs of the mother ([2]; subcutaneous acyclovir, daily dose 0.75 mg, Figure 7A): considerably lower levels of the virus; survival of the animals (human herpesviruses): higher; toxicity limit [3]: 80 mg/kg
